Experimental data: patent US10759785B2, “Compounds” (ENTERPRISE THERAPEUTICS LIMITED, priority 2016, dated 2020)
One block for each compound: values may come before it.

Key:
ENaC [1] = target: T1, ENaC (Homo sapiens, UniProt P37088+P51168+P51170); conditions: cited from earlier work
T1 construct: Human bronchial epithelial cells (HBECs) (Lonza, UK) were cultured; host or cells: primary human bronchial epithelial cells (HBECs) differentiated at an air-liquid interface
T1 sequence (P37088 1-669): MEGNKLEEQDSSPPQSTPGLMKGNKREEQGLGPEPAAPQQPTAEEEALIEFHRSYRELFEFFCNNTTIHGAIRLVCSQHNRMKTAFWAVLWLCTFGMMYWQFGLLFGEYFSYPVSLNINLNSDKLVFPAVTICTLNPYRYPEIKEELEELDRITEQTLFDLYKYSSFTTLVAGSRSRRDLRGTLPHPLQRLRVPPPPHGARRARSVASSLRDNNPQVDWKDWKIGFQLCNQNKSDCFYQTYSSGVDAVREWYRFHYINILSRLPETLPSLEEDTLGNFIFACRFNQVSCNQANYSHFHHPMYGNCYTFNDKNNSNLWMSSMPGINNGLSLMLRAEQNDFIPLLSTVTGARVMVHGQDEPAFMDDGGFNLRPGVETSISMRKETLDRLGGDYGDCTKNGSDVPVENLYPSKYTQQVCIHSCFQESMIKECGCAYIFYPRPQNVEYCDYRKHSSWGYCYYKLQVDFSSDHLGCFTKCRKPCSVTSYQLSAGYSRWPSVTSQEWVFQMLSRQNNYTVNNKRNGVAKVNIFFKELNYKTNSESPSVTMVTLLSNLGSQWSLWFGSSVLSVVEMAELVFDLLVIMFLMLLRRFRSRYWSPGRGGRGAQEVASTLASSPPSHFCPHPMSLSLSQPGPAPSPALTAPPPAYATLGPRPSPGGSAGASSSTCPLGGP
T1 sequence (P51168 1-640): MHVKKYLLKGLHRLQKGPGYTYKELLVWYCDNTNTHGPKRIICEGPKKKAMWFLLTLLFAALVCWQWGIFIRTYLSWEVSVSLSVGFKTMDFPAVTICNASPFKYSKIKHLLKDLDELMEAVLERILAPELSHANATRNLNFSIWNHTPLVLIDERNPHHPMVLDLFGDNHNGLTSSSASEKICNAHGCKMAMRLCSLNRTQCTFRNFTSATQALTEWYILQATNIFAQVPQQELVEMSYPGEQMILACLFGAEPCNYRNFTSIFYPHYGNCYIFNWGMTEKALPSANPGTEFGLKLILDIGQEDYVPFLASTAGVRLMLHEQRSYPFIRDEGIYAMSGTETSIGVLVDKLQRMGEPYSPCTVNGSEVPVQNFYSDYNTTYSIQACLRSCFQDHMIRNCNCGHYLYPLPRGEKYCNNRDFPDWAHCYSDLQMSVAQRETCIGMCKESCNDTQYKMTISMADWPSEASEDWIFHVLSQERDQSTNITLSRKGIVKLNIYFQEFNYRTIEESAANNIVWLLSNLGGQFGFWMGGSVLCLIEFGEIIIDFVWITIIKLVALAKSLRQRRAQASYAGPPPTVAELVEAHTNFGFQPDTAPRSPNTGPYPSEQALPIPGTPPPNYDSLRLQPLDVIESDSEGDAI
T1 sequence (P51170 1-649): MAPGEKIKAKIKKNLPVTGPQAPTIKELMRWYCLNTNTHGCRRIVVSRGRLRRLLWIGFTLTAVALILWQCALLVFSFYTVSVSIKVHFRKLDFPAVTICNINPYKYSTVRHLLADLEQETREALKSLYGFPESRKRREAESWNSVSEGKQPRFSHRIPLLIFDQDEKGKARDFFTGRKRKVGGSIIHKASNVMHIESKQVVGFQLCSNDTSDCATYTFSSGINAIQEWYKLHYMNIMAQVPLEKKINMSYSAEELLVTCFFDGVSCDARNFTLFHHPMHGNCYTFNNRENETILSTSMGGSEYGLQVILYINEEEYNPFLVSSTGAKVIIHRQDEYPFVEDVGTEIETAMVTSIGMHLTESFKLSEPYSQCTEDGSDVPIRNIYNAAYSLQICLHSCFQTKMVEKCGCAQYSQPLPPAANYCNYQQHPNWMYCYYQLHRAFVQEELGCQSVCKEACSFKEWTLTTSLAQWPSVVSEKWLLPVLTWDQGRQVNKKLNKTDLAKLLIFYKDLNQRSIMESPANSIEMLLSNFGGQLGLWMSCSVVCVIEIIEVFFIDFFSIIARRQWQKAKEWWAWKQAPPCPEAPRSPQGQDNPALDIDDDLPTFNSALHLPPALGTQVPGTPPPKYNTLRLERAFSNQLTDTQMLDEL

[2] = Hepatic stability (rat cryopreserved hepatocytes); assay type: in vitro ADME; conditions: pH 7.4, 1 μM test compound, 1×10^6 cells/mL, 37° C., read-out: Averages. Hep Half Life Rat
Protocol: (§1) Example 29—Hepatic Stability
(§2) Cryopreserved hepatocytes (rat and human) were obtained from Bioreclamation. Test compound stock solutions in DMSO (10 mM) were diluted with DMSO to 4 mM. Further dilution was completed to achieve a 100 μM stock (5 μL of 4 mM in 195 μL of 50:50 DMSO:hepatocyte buffer). Final test compound concentration in incubation was 1 μM. The following probe substrates were used: testosterone and carbamazepine at a final incubation concentration of 1 μM. Hepatocyte buffer was prepared (Williams E media containing phenol red and Glutamax™, 15 mM HEPES, warmed to 37° C., pH7.4 with NaOH). Cells were removed from liquid nitrogen, thawed in a waterbath, decanted into 50 mL of pre-warmed Cryopreserved Hepatocyte Recovery Media (LifeTechnologies) and centrifuged. Supernatant fraction was removed, cells were re-suspended in hepatocyte buffer and counted by trypan blue exclusion. Cell viability of >80% was required for all assays. Cells were re-suspended to 1×10^6/mL and 198 μL cell suspension added to each 96-well. 2 μL of 100 μM compound stock solution was added to relevant wells to initiate the incubation. A no cell control and two replicates of each test compound was included in every assay. Cells were incubated at 37° C., on a shaker set at 300 rpm. At each timepoint (0, 15, 30, 45, 60, 90 min) 20 μL of sample was removed from the 96-well and added to 80 μL of quench solution (acetonitrile containing 0.1% formic acid and imipramine/labetalol, 200 nM). Samples were diluted 1:1 with water using the Janus Robot and analysed by LC-MS/MS.

[3] = Microsomal stability (rat microsomes); assay type: in vitro ADME; conditions: pH 7.4, 1 μM test compound, 0.5 mg/mL protein, 1 mM NADPH, 37° C., read-out: Averages. Mic Half Life Rat
Protocol: (§3) Example 28—Microsomal Stability
(§4) Microsomes (rat and human) were obtained from Bioreclamation. Test compound stock solutions in DMSO (10 mM) were diluted with DMSO to 2 mM. Further dilution was completed to achieve a 100 μM stock (final concentrations; 91.5% Acetonitrile: 8.5% DMSO). Final test compound concentration in incubation was 1 μM (<0.1% DMSO). The following probe substrates were used: verapamil, propranolol, metoprolol and phenacetin (rat) at a final incubation concentration of 1 μM. Assay buffer—Solution 1: 17.4 g potassium phosphate dibasic anhydrous (K2HPO4, 0.1 M) dissolved in 1 L deionised water. Solution 2: 13.6 g potassium phosphate monobasic anhydrous (KH2PO4, 0.1 M) dissolved in 1 L deionised water. Potassium phosphate solutions 1 and 2 were combined to form a pH 7.42 solution at 37° C. pH 7.4 with 2 mM magnesium chloride. NADPH (10 mM)—diluted in deionised water. Frozen microsomes were thawed at 37° C. Microsomes were diluted in assay buffer to achieve a final protein concentration of 0.5 mg/mL and 1 mM NADPH. The following procedure was completed on a Perkin Elmer Janus robotic platform in 96 well format: The microsomal incubation plate was transferred to a heater shaker at 300 rpm and solution heated to 37° C. for 10 min pre-warm. A no co-factor control at 0 and 45 min and one replicates of each test compound was included in every assay. Microsomes were incubated at 37° C., on a shaker set at 300 rpm throughout the assay. At each timepoint (0, 5, 15, 30, 45 min) 50 μL of sample was removed from the 96-well and added to 200 μL of quench solution (acetonitrile containing 0.1% formic acid and imipramine/labetalol, 200 nM). Samples were diluted 1:1 with water using the Janus Robot and analysed by LC-MS/MS.

[4] = Hepatic stability (human cryopreserved hepatocytes); assay type: in vitro ADME; conditions: cryopreserved hepatocytes, pH 7.4, 1 μM test compound, 1×10^6 cells/mL, 37° C., read-out: Averages. Hep Half Life Human
Protocol: as §1, §2

[5] = Microsomal stability (human microsomes); assay type: in vitro ADME; conditions: pH 7.4, 1 μM test compound, 0.5 mg/mL protein, 1 mM NADPH, 37° C., read-out: Averages. Mic Half Life Human
Protocol: as §3, §4

ENaC [6] = target: T1, ENaC; test: Short circuit current assay to determine ENaC blocker potency in human bronchial epithelial cells; assay type: cell-based; conditions: 50% inhibition of total amiloride-sensitive ISC, HBECs, apical addition; read-out: Averages. ENaC Ic50 μm Avg
Protocol: Example 27—Short Circuit Current Assay to Determine ENaC Blocker Potency in Human Bronchial Epithelial Cells
Human bronchial epithelial cells (HBECs) (Lonza, UK) were cultured using a modification of the method described by Coote et al, (2008). Cells were seeded into plastic T-75 flasks and grown in Bronchial Epithelial Cell Growth Medium (BEGM) (Lonza, UK) supplemented with bovine pituitary extract (52 ng/mL), hydrocortisone (0.5 μg/mL), human recombinant Epidermal Growth Factor (0.5 ng/mL), epinephrine (0.5 ng/mL), transferrin (10 ng/mL), insulin (5 ng/mL), retinoic acid (0.1 ng/mL), triiodothyronine (6.5 ng/mL), gentamycin (50 μg/mL) and amphotericin-B (50 ng/mL). Medium was changed every 48 hours until cells were 90% confluent. Cells were then passaged and seeded (8.25×10^5 cells/insert) onto polycarbonate Snapwell™ inserts (Costar, UK) in differentiation media containing 50% DMEM in BGEM with the same supplements as above but without triiodothyronine and a final retinoic acid concentration of 50 nM (all-trans retinoic acid; Sigma-Aldrich, UK). Cells were maintained submerged for the first 7 days in culture after which time they were exposed to an apical air interface for the remainder of the culture period. From the first day of establishment of an ALI, HBEC were fed with a DMEM:HAMS F-12 (1:1) media containing 2% Ultroser G (Pall BioSepra, France) with gentamycin (50 μg/mL) and amphotericin B (50 ng/mL). Cells were used for short-circuit current assay between days 14-21 after the establishment of the ALI. At all stages of culture, cells were maintained at 37′C in 5% CO2 in an air incubator.
Short-Circuit Current (ISC) Measurements
Snapwell inserts were mounted in Costar Vertical Diffusion Chambers (Costar, UK) and were bathed with continuously gassed Ringer solution (5% CO2 in O2; pH 7.4) maintained at 37° C. containing (in mM): 120 NaCl, 25 NaHCO3, 3.3 KH2PO4, 0.8 K2HPO4, 1.2 CaCl2, 1.2 MgCl2 and 10 glucose. The solution osmolarity was always between 280-300 mOsm/kg H2O for all physiological salt solutions used. Cells were voltage clamped to 0 mV (model EVC4000, WPI). Transepithelial resistance (RT) was measured by applying a 2 mV pulse at 30 s intervals and calculating RT by Ohm's law. Data were recorded using a PowerLab workstation (ADInstruments, UK).
ENaC blocker compounds were added to the apical chamber from a 1000-fold stock solution (prepared in DMSO) to achieve a cumulative concentration response in terms of the inhibition of the basal ISC. At the completion of the concentration response, a supra-maximal concentration of amiloride (10 μM) was added. The concentration of test compound that induced a 50% inhibition of the total amiloride-sensitive ISC (IC50) was calculated using GraphPad Prism v6.05.

Structure (SMILES): N=C(N)NC(=O)c1nc(Cl)c(N)nc1N [Amiloride]
Effect on MCC (ENaC [1]; healthy controls and patients with CF): increase MCC
Effect on clinical endpoints (ENaC [1]; inhaled amiloride): lack of a robust effect

half-life at 1 μM [2]: 6 min
half-life at 1 μM [3]: 3 min
half-life at 1 μM [4]: 44 min
half-life at 1 μM [5]: 12 min
Structure (SMILES): CCn1c(CNC(=O)c2nc(Br)cnc2N)[n+](C)c2ccc(OC)cc21.[I-] [Example 1, 2-{[(3-amino-6-bromopyrazin-2-yl)formamido]methyl}-1-ethyl-6-methoxy-3-methyl-1H-1,3-benzodiazol-3-ium iodide]

IC50 (ENaC [6]): 14 nM
Structure (SMILES): CCn1c(CNC(=O)c2nc(Br)cnc2N)[n+](CC)c2ccc(C(=O)O)cc21 [Example 16, 2-{[(3-amino-6-bromopyrazin-2-yl)formamido]methyl}-6-carboxy-1,3-diethyl-1H-1,3-benzodiazol-3-ium bromide]
